Assay results reported in US20020055528A1, “Artemisinin analogs having antimalarial, antiproliferative, and antitumor activities and chemoselective methods of making the same” (priority 1999, published 2002).

What was measured:
Assay type in all cases: cell-based
[1] = test system: SF-268; test: NCI 60 cell line screen (SRB), CNS Cancer
[2] = test system: BT-549; test: NCI 60 cell line screen (SRB), Breast Cancer
[3] = test system: murine keratinocyte cell line PE; test: Growth inhibition of PE cells, MTT assay; settings: 100 nanomolar; compared with calcitriol; FIG. 5
Protocol: To determine the inhibitory effect of the compositions of the present invention on cell proliferation, screening assays were performed on a murine keratinocyte cell line PE. Cell line PE was chosen for its particular sensitivity to the induction of omithine decarboxylase (ODC) activity by the extensively characterized tumor promoter TPA. Cell line PE was derived from a papilloma-induced in female SENCAR mice by a standard skin initiation/promotion protocol, see Yuspa, S. H., et al., Carcinogenesis, 7:949-958 (1986). PE cell culture medium consisted of Eagle's minimal essential medium without calcium chloride (Whittaker Bioproducts, Walkersville, Mass.) supplemented with 8% chelexed fetal calf serum and 1% antibiotic-antimycotic (Gibco BRL) and the addition of CaCI2 to 0.05 mM Ca^++
MTT [3-(4,5-dimethylthiazol-2-yl)-2,5-diphenyltetraxolium bromide] was purchased from Sigma Chemical Co. (St. Louis, Mo.), and TPA was supplied by L.C. Services (Woburn, Mass.). L-[^14C]omithine ([…]) was from Amersham/Searle Corp. (Arlington Heights, Ill.). Chemical solvents used in all assays of biological activity were of the highest grade commercially available.
Growth curves, shown in FIG. 5, for PE cells treated with calcitriol and the C-10 carbon-substituted dimers VII-f, VII-g and VII-h generated by assay for the reduction of the tetrazolium-based compound MTT, see Charmichael, et al., Cancer Res., 47:936-942 (1987). A mitochondrial dehydrogenase reduces MTT to a blue formazan product with an absorbance maximum of 505 nm in DMSO; the number of viable cells can thus be determined spectrophotometrically. PE cells were seeded at a density of 5,000 cells/well in 50 IL of medium into 96-well microtiter plates. Twelve hours later, the medium was removed, and cells were treated with 100 μL of fresh medium into which the appropriate amount of calcitriol or analog dissolved in dimethyl sulfoxide (DMSO) had been added, with the concentration of DMSO held constant at 0.1 %. […] At 24-hour intervals following the initial treatment of the cells with compounds, 0.1 mg (50 μL of a 2 mg/mL solution) of MTT was added to each well. After 4 hours, the MTT was removed and DMSO added to dissolve the blue formazan dye. Using a microtiter plate reader, the A505 was then determined and cell number calculated from blank-subtracted absorbance values.

[4] = test system: SR; test: NCI 60 cell line screen (SRB), Leukemia
[5] = test system: NCI-H23; test: NCI 60 cell line screen (SRB), Non-Small Cell Lung Cancer
[6] = test system: OVCAR-3; test: NCI 60 cell line screen (SRB), Ovarian Cancer; settings: PG=0
[7] = test system: SNB-19; test: NCI 60 cell line screen (SRB), CNS Cancer; settings: for Log10TGI: PG=0
[8] = test system: SK-MEL-28; test: NCI 60 cell line screen (SRB), Melanoma
[9] = test system: TK-10; test: NCI 60 cell line screen (SRB), Renal Cancer
[10] = test system: SF-295; test: NCI 60 cell line screen (SRB), CNS Cancer
[11] = test system: COLO 205; test: NCI 60 cell line screen (SRB), Colon Cancer

`CC1=C(C=Cc2cccc(C=CC3=C(C)C4CCC(C)C5CCC6(C)OOC45C(O3)O6)c2)OC2OC3(C)CCC4C(C)CCC1C24OO3` (stereo not drawn) [VII-f] was tested. Which Log10TGI ([1]; PG=0) did it give?
The Log10TGI was greater than −4.00 log10M.

And the Log10GI50 ([1]; PG=+50)?
The Log10GI50 was −5.70 log10M.

What about the Log10GI50 ([2]; PG=+50) of the same compound?
Its Log10GI50 is −6.50 log10M.

What about the Log10GI50 ([2]; Table IV (LC50, PG=−50)) of the same compound?
The Log10GI50 was greater than −4.00 log10M.

And the “antiproliferative activity in words” value [3]?
The value was “at least as antiproliferative as calcitriol”.

And the Log10TGI ([4]; PG=0)?
The Log10TGI was −6.19 log10M.

And the Log10GI50 ([4]; PG=+50)?
The Log10GI50 was −6.19 log10M.

And the Log10GI50 ([4]; Table IV (LC50, PG=−50))?
Its Log10GI50 is greater than −4.00 log10M.

What about the Log10TGI ([5]; PG=0) of the same compound?
The Log10TGI was −4.36 log10M.

And the “log10 GI50 or LC50 (see conditions)” value ([5]; PG=+50)?
The value was −5.32 log10M.

What about the “log10 GI50 or LC50 (see conditions)” value ([5]; Table IV (LC50, PG=−50)) of the same compound?
The value was greater than −4.00 log10M.

And the Log10TGI [6]?
Its Log10TGI is greater than −4.00 log10M.

And the Log10TGI [7]?
Its Log10TGI is greater than −4.33 log10M.

What about the “Log10GI50 or Log10LC50 (see condition)” value ([7]; PG=+50) of the same compound?
The value was −5.85 log10M.

What about the “Log10GI50 or Log10LC50 (see condition)” value ([7]; Table IV (LC50, PG=−50)) of the same compound?
The value was greater than −4.33 log10M.

And the Log10TGI ([8]; PG=0)?
The Log10TGI was greater than −4.00 log10M.

And the Log10GI50 ([8]; PG=+50)?
The Log10GI50 was −4.00 log10M.

What about the Log10GI50 ([8]; Table IV (LC50, PG=−50)) of the same compound?
The Log10GI50 was greater than −4.00 log10M.

What about the Log10TGI ([9]; PG=0) of the same compound?
Its Log10TGI is greater than −4.00 log10M.

What about the Log10GI50 ([9]; PG=+50) of the same compound?
Its Log10GI50 is −5.44 log10M.

And the Log10GI50 ([9]; Table IV (LC50, PG=−50))?
Its Log10GI50 is greater than −4.00 log10M.

What about the Log10TGI ([10]; PG=0) of the same compound?
The Log10TGI was greater than −4.00 log10M.

What about the Log10GI50 ([10]; PG=+50) of the same compound?
Its Log10GI50 is −5.25 log10M.

And the Log10TGI ([11]; PG=0)?
Its Log10TGI is −5.93 log10M.

What about the Log10GI50 ([11]; PG=+50) of the same compound?
The Log10GI50 was −6.61 log10M.

What about the Log10GI50 ([11]; Table IV (LC50, PG=−50)) of the same compound?
The Log10GI50 was −5.30 log10M.

How did the Log10GI50 ([2]; PG=+50) turn out when `CC(=O)O[C@H]1C(=O)[C@@]2(C)[C@H]([C@H](OC(=O)c3ccccc3)[C@]3(O)C[C@H](OC(=O)[C@H](O)[C@@H](NC(=O)c4ccccc4)c4ccccc4)C(C)=C1C3(C)C)[C@]1(OC(C)=O)CO[C@@H]1C[C@@H]2O` [Paclitaxel, paclitaxel, reference compound] was run?
The Log10GI50 was −9.81 log10M.

What about the Log10GI50 ([4]; Table IV (LC50, PG=−50)) of the same compound?
Its Log10GI50 is greater than −4.00 log10M.

What about the Log10TGI [6] of the same compound?
Its Log10TGI is −4.55 log10M.

And the Log10TGI [7]?
Its Log10TGI is greater than −4.00 log10M.

What about the Log10GI50 ([9]; PG=+50) of the same compound?
The Log10GI50 was −7.89 log10M.

What about the Log10GI50 ([11]; PG=+50) of the same compound?
The Log10GI50 was −11.07 log10M.

And the Log10GI50 ([11]; Table IV (LC50, PG=−50))?
Its Log10GI50 is greater than −4.41 log10M.
